Consider three molecules from article PMC5601071 (Frontiers in Pharmacology, 2017).

The inhibition is the change of the read-out against control, counted positive when it falls. For orientation: IC50 means the concentration needed to halve the response being measured.

Like-named read-outs stand apart in the source and are kept apart here. Residues, ends and D or L forms follow the SMILES beside them.

The target of series [1] is T1, TREK-1 channel (hTREK-1/HEK cells) (Homo sapiens, UniProt O95069).
T1 construct: expressed in transfected cells
T1 sequence (O95069 1-426): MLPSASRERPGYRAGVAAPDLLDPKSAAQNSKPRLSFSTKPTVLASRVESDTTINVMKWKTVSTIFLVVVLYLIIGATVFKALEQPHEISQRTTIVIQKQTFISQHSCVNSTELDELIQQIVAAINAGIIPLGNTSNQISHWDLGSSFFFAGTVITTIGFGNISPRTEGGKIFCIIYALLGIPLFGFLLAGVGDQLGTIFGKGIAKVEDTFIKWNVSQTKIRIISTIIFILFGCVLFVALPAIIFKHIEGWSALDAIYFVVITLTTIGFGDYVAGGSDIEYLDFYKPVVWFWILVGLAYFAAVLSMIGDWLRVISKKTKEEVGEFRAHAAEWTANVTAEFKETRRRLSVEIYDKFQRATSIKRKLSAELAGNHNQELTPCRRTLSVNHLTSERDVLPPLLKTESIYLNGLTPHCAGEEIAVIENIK
Description: TREK-1 current inhibition, whole-cell patch-clamp on hTREK-1/HEK cell line. Type of series: cell-based. The conditions noted are these: hTREK-1/HEK cells. The protocol: The human TREK-1/HEK cell line (Moha ou Maati et al., [2011]) and the native HEK293 cell line were maintained in Dulbecco's Modified Eagle's Medium (DMEM) supplemented with 10% (v/v) heat-inactivated fetal bovine serum, 1% (v/v) penicillin-streptomycin, 1% Glutamax. For the hTREK-1/HEK cells, 0.5 mg/ml G418 were added to the medium.
Cells were incubated in a humidified atmosphere containing 5% CO2. For electrophysiological measurements, cells were plated at a density of 20,000 cells per 35 mm dish.
Cells from the hTREK-1/HEK cell line were seeded at a density of 20,000 cells/35 mm dish. Electrophysiological recordings were performed 24–48 h after plating using the whole-cell configuration of patch-clamp technique. TREK-1 currents (ITREK−1) were recorded using RK400 patch-clamp amplifier (Axon Instrument, USA). They were low-pass filtered at 3 kHz and digitized at 10 kHz using a 12-bit analog-to-digital converter digidata (1322 series, Axon Instrument, USA). ITREK−1amplitudes were expressed as current densities [current amplitude (pA)/membrane capacitance (pF)]. The results were expressed as mean ± SEM (standard error of the mean).
Cells were continuously perfused using an external bath solution containing in mM: 150 NaCl, 5 KCl, 3 MgCl2, 1 CaCl2, and 10 HEPES. The bath solution was initially adjusted to pH 7.4 with NaOH. The intra-pipette solution contained in mM: 155 KCl, 3 MgCl2, 5 EGTA, and 10 HEPES adjusted to pH 7.2 with KOH. In order to measure ITREK−1, a cocktail of potassium channel blockers was added to the bath solution. This cocktail contained: 3 mM 4-AP (4-aminopyridine), 10 mM TEA (tetraethylammonium), 10 μM Glibenclamide, 100 nM Apamin, and 50 nM Charybdotoxin. Data acquisition was carried out using a computer (Dell Pentium) with pClamp software (Axon Instrument, USA). Whole-cell currents were generated by running a pulse or ramp protocol every 5 s from −100 to +60 mV with a holding potential maintained at −80 mV. To evaluate the inhibitory effect on TREK-1 channels of shortened spadin analogs compared with spadin, cells were first activated by 10 μM arachidonic acid (AA). Dose-response curves were realized to compare spadin-analog effects with spadin using Origin 8.6 (Northampton, MA, USA).
Patch-clamp recording data were analyzed using Clampfit (Molecular Devices, USA). I = f(V) curves were obtained from −100 to +60 mV ramp. Data were presented as mean ± SEM.
(In general: Patch clamp records ionic current or voltage across a cell membrane.)

Series [2] is described as follows: In vitro degradation / half-life time in serum. The settings on record: mouse serum, 30 min, 37°C (method b20: 10 nmoles in 200 μl serum, room temperature); HPLC. Type of series: in vitro ADME, mouse. The protocol:
[…] Incubations were stopped by direct acidification (5 μl of 2.5 M HCl), loaded in C-18 sepack cartridges, lyophilized, resuspended in 20% acetonitrile before loading onto HPLC for analysis of PE degradation/stability. Elutions of HPLC products were carried out by means of a 50-min linear gradient of acetonitrile from 20 to 70% at a flow rate of 1 ml/min. The amount of the intact PE for each incubation time was expressed as the percent of the initial amount of spadin.

For series [3], the target named is T1, TREK-1 channel (hTREK-1/HEK cells). The conditions noted are these: ref Mazella et al., 2010, Moha ou Maati et al., 2011, cited from earlier work. An excerpt: Depression is a devastating mental disorder that affects 20% of the population worldwide. Despite their proven efficacy, antidepressants present a delayed onset of action and serious adverse effects. Seven years ago, we described spadin (PE 12-28) as a promising endogenous peptide with antidepressant activity. Spadin specifically blocks the TREK-1 channel. […] In order to improve in vivo spadin stability and bioavailability, we screened spadin analogs and derivatives. From the study of spadin blood deg ... || Depression is one of the most common mood disorders that represents a heavy economic burden in industrialized countries (Smith, [2014]). Severe depression affects 2–5% of US citizens and up to 20% of the population suffer from mild depression (Nestler et al., [2002]; Maletic et al., [2007]; Krishnan and Nestler, [2008]; Kessler et al., [2012]). Depression is a complex syndrome with a variety of causes mostly genetic and environmental (Nestler et al., [2002]).

The nature of another series: mouse serum. The settings on record: 37°C (Figure 1 legend), room temperature, up to 60 min.

Take `CC[C@H](C)[C@H](NC(=O)[C@@H]1CCCN1C(=O)CNC(=O)[C@H](CO)NC(=O)[C@H](Cc1c[nH]c2ccccc12)NC(=O)[C@H](CCCNC(=N)N)NC(=O)[C@@H]1CCCN1C(=O)[C@H](CC(C)C)NC(=O)[C@@H]1CCCN1C(=O)[C@H](C)N)C(=O)NCC(=O)N[C@H](C(=O)N[C@@H](CO)C(=O)N[C@@H](Cc1c[nH]c2ccccc12)C(=O)NCC(=O)N[C@@H](CC(C)C)C(=O)N[C@@H](CCCNC(=N)N)C(=O)O)C(C)C` [PE 12-28 (Spadin), reference compound] (H-APLPRWSGPIGVSWGLR-OH): the inhibition at 0.1 µM in series [1] (HEK293, peptide 100 nM, TREK-1 first activated with 10 μM arachidonic acid (AA), current density at 0 mV, mean ± SEM, n = cells, read-out: % of TREK-1 inhibition) was found to be 44.4 ± 8.82%. Also, the IC50 in series [1] (dose-response curves at 0 mV, activated by 10 μM AA) was 40 nM; in series [3] (Moha Ou Maati et al., 2012, read-out: IC50 for TREK-1 block (spadin)), 40 to 60 nM. Also, the “spadin remaining after incubation with serum” value in series [2] is “disappearance of almost all spadin”.

For the molecule `CNCCC(Oc1ccc(C(F)(F)F)cc1)c1ccccc1` (stereo not drawn) [fluoxetine], the concentration for half-maximal inhibition (IC50) in series [3] (read-out: IC50 for TREK-1 block (fluoxetine)) was about 6000 nM.

As for APLPRWSGPIGVSWGLR, the fragment found entry in “mouse serum” was “PE 12-27”.
